Experimental data published in US20090311237A1, “Combination therapy using a soluble hyaluronidase and a bisphosphonate” (priority 2008, published 2009).
Like-named read-outs stand apart in the source and are kept apart here.

Test: Phase 1 Stage 1 clinical pharmacokinetics of SC ZA co-administered with rHuPH20
Format: in vivo, human
Settings: human, serum, sc, serum; for concentration at 6 h: 6 h post infusion; for concentration at 8 h: 8 h post infusion; for concentration at 12 h: 12 h post infusion; for concentration at 0 h: 0 h post infusion; for concentration at 10 min: 10 min post infusion; for concentration at 0.5 h: 0.5 h post infusion; for concentration at 1 h: 1 h post infusion; for concentration at 2 h: 2 h post infusion; for concentration at 4 h: 4 h post infusion; for concentration at 24 h: 24 h post infusion; for concentration at 48 h: 48 h post infusion
Description: A pharmacokinetic study of zoledronic acid (ZA) co-administered with rHuPH20 in human subjects was conducted. The primary objective of the study was to determine the bioavailability of zoledronic acid dosed via subcutaneous (SC) co-administration with human recombinant hyaluronidase PH20 (rHuPH20). […] The patients were administered the prescribed dosage formulations as follows: Cohorts 1-5 were administered a single subcutaneous infusion in a dosage volume of 100 ml at a rate of 3 mL/min. […] The dosing solution is administered via needle or catheter into the SC space of the left anterior thigh (midway between the anterior iliac crest and the cephalad border of the patella). For cohorts 1-5, the dosing solutions were administered by a controlled rate infusion pump at approximately 3 mL/minute. […] The dosing solutions were administered by syringe push bolus injection. […] Serum concentration of ZA was determined using a qualified LC-MS-MS assay after derivatization with diazomethane (Zhu, L S et al. (2006) Rapid Commun. […] The assay range was from 2.0 to 400 ng/mL with a lower limit of quantitation (LLOQ) at 2.0 ng/mL. […] Non-compartmental analysis was used for derivation of primary and secondary pharmacokinetic (PK) parameters. […] Summary statistics (mean, standard deviation, and median) were calculated using JMP or Microsoft Excel.

[1] = ZA 0.5 mg SC infusion + 24000 Units rHuPH20, n=3, read-out: Median Conc.
[2] = ZA 0.5 mg SC infusion + 24000 Units rHuPH20, individual subjects, read-out: Zoledronic Acid Concentration
[3] = ZA 0.5 mg SC infusion + 24000 Units rHuPH20, n=3, read-out: Mean Conc.
[4] = ZA 1 mg SC infusion + 24000 Units rHuPH20, individual subjects, read-out: Zoledronic Acid Concentration
[5] = ZA 1 mg SC infusion + 24000 Units rHuPH20, n=3, read-out: Mean Conc.
[6] = ZA 1 mg SC infusion + 24000 Units rHuPH20, n=3, read-out: Median Conc.
[7] = ZA 2 mg SC infusion + 24000 Units rHuPH20, individual subjects, read-out: Zoledronic Acid Concentration
[8] = ZA 2 mg SC infusion + 24000 Units rHuPH20, n=3, read-out: Mean Conc.
[9] = ZA 2 mg SC infusion + 24000 Units rHuPH20, n=3, read-out: Median Conc.
[10] = ZA 5 mg SC infusion + 24000 Units rHuPH20, n=3, read-out: Mean Conc.
[11] = ZA 5 mg SC infusion + 24000 Units rHuPH20, n=3, read-out: Median Conc.
[12] = ZA 5 mg SC infusion + 24000 Units rHuPH20, individual subjects, read-out: Zoledronic Acid Concentration

O=P(O)(O)C(O)(Cn1ccnc1)P(=O)(O)O [ZA, 1-hydroxy-2-(1H-imidazol-1-yl)ethylidene-1,1-bisphosphonic acid]
concentration at 6 h [1]: 2.53 ng/mL | concentration at 8 h [2]: 1.19 ng/mL | concentration at 8 h [3]: 1.32 ng/mL | concentration at 8 h [1]: 1.34 ng/mL | concentration at 12 h [2]: 0.52 ng/mL | concentration at 12 h [3]: 0.54 ng/mL | concentration at 12 h [1]: 0.55 ng/mL | concentration at 0 h [4]: 28.4 ng/mL | concentration at 0 h [5]: 20.5 ng/mL | concentration at 0 h [6]: 17.9 ng/mL | concentration at 10 min [4]: 32.1 ng/mL | concentration at 10 min [5]: 27.2 ng/mL | concentration at 10 min [6]: 25 ng/mL | concentration at 0.5 h [4]: 33.4 ng/mL | concentration at 0.5 h [5]: 28.1 ng/mL | concentration at 0.5 h [6]: 28 ng/mL | concentration at 1 h [4]: 29.9 ng/mL | concentration at 1 h [5]: 25.5 ng/mL | concentration at 1 h [6]: 27.2 ng/mL | concentration at 2 h [4]: 24 ng/mL | concentration at 2 h [5]: 19.6 ng/mL | concentration at 2 h [6]: 17.7 ng/mL | concentration at 4 h [4]: 13.3 ng/mL | concentration at 4 h [5]: 10.3 ng/mL | concentration at 4 h [6]: 10.2 ng/mL | concentration at 6 h [4]: 5.48 ng/mL | concentration at 6 h [5]: 4.9 ng/mL | concentration at 6 h [6]: 5.47 ng/mL | concentration at 8 h [4]: 2.44 ng/mL | concentration at 8 h [5]: 2.69 ng/mL | concentration at 8 h [6]: 2.46 ng/mL | concentration at 12 h [4]: 1.02 ng/mL | concentration at 12 h [5]: 1.09 ng/mL | concentration at 12 h [6]: 1.02 ng/mL | concentration at 24 h [4]: 0.56 ng/mL | concentration at 24 h [5]: 0.52 ng/mL | concentration at 24 h [6]: 0.51 ng/mL | concentration at 0 h [7]: 33.3 ng/mL | concentration at 0 h [8]: 37.9 ng/mL | concentration at 0 h [9]: 39.6 ng/mL | concentration at 10 min [7]: 52.5 ng/mL | concentration at 10 min [8]: 48.3 ng/mL | concentration at 10 min [9]: 46.3 ng/mL | concentration at 0.5 h [7]: 59.8 ng/mL | concentration at 0.5 h [8]: 51.9 ng/mL | concentration at 0.5 h [9]: 48.6 ng/mL | concentration at 1 h [7]: 57.7 ng/mL | concentration at 1 h [8]: 56.5 ng/mL | concentration at 1 h [9]: 57.7 ng/mL | concentration at 2 h [7]: 42.5 ng/mL | concentration at 2 h [8]: 41.6 ng/mL | concentration at 2 h [9]: 42.2 ng/mL | concentration at 4 h [7]: 17.5 ng/mL | concentration at 4 h [8]: 20.3 ng/mL | concentration at 4 h [9]: 20.3 ng/mL | concentration at 6 h [7]: 6.43 ng/mL | concentration at 6 h [8]: 7.69 ng/mL | concentration at 6 h [9]: 7.71 ng/mL | concentration at 8 h [7]: 3.15 ng/mL | concentration at 8 h [8]: 3.77 ng/mL | concentration at 8 h [9]: 3.34 ng/mL | concentration at 12 h [7]: 1.5 ng/mL | concentration at 12 h [8]: 1.74 ng/mL | concentration at 12 h [9]: 1.64 ng/mL | concentration at 24 h [7]: 0.78 ng/mL | concentration at 24 h [8]: 0.87 ng/mL | concentration at 24 h [9]: 0.85 ng/mL | concentration at 48 h [7]: 0.62 ng/mL | concentration at 48 h [8]: 0.21 ng/mL | concentration at 0 h [10]: 88.6 ng/mL | concentration at 0 h [11]: 82.3 ng/mL | concentration at 10 min [12]: 121 ng/mL | concentration at 10 min [10]: 110 ng/mL | concentration at 10 min [11]: 121 ng/mL | concentration at 0.5 h [12]: 130 ng/mL | concentration at 0.5 h [10]: 125 ng/mL | concentration at 0.5 h [11]: 130 ng/mL | concentration at 1 h [12]: 124 ng/mL | concentration at 1 h [10]: 118 ng/mL | concentration at 1 h [11]: 116 ng/mL | concentration at 2 h [12]: 83.5 ng/mL | concentration at 2 h [10]: 86.6 ng/mL | concentration at 2 h [11]: 86.5 ng/mL | concentration at 4 h [12]: 45.6 ng/mL | concentration at 4 h [10]: 50 ng/mL | concentration at 4 h [11]: 45.6 ng/mL | concentration at 6 h [12]: 20.3 ng/mL | concentration at 6 h [10]: 23.5 ng/mL
